Measurements from paper PMC4139061, “Structural basis of nucleoside and nucleoside drug selectivity by concentrative nucleoside transporters” (eLife, 2014).

How the values were obtained:
hCNT1 (353V/424L) = hCNT1 (353V/424L) (Homo sapiens, UniProt O00337, L353V/V424L); test: two-electrode voltage-clamp total charge in Xenopus oocytes expressing hCNT1 (353V/424L); format: cell-based; settings: mean of Exp. 1-8
Description: Figure 6. […] (A) Model of hCNT3 nucleo-pocket. […] (B) Model of hCNT1 nucleo-pocket. […] (C) Hypothetical alternating-access mechanism of vcCNT. A cartoon representation of the different conformational states along the transport cycle is depicted. The transport domain (including HP1, HP2, TM4b, and TM7b) and TM6 are shown as cylinders. […] The nucleo-pocket in the inward-occluded conformation (bottom right) is located between TM6 and TM4 and is marked with a green star. The inward-occluded conformation is derived from the crystal structures of vcCNT. All other conformations are purely hypothetical. The transition between inward- and outward-facing conformations has been proposed to be achieved by a rigid-body movement of the transport domain across TM6 ([Johnson et al., 2012]). Extracellular and intracellular gating likely involves slight rearrangements of HP2/TM4b and HP1/TM7b, respectively. […] See Figure 6—source data 1 for total charge source data. DOI: http://dx.doi.org/10.7554/eLife.03604.024 Figure 6—source data 1. Total charge data. Total charge transported (μC) was calculated as the area under the curve of the current trace after application of the indicated nucleoside to hCNT-expressing Xenopus oocytes. Each row represents a separate experiment done using a different oocyte. The ratios of the total charge transported for the nucleosides are shown in the last columns.
(§1) The genes coding for the three hCNTs and vcCNT were cloned into a pGEM-HE vector. Plasmids were linearized using either SphI or NheI, and mRNA was transcribed using the mMESSAGE mMACHINE T7 Transcription Kit (Ambion, Grand Island, NY). Defolliculated Xenopus laevis oocytes were purchased from Ecocyte Bioscience (Austin, TX). Individual oocytes were injected with 40 ng of mRNA using a 10-μl microdispenser (Drummond Scientific, Broomall, PA) fitted with a tapered glass pipette tip and incubated at 17 °C for 4–5 days in ND96 buffer (96 mM NaCl, 2 mM KCl, 1 mM MgCl2, 1.8 mM CaCl2, and 5 mM HEPES pH 7.5) with 0.1% penicillin and streptomycin before recording.
(§2) The oocyte-recording chamber was gravity-perfused with ND96 buffer at a rate of 2 ml/min. Membrane currents were measured using an Oocyte Clamp (OC-725C; Warner Instruments, Hamden, CT). Individual oocytes were penetrated with two microelectrodes filled with 3 M KCl (0.5–1.0 MΩ). All electrophysiological experiments were conducted at room temperature. The OC-725C Oocyte Clamp was computer-interfaced via an Axon Digidata 1550 and controlled by Axoscope software (Molecular Devices, Sunnyvale, CA). The current signals were filtered at 20 Hz and sampled at intervals of 20 ms.

hCNT1 = target: T1, hCNT1 (Homo sapiens, UniProt O00337); test: two-electrode voltage-clamp of Na+ currents / total charge in Xenopus oocytes expressing hCNT1; format: cell-based
T1 sequence (O00337 1-649): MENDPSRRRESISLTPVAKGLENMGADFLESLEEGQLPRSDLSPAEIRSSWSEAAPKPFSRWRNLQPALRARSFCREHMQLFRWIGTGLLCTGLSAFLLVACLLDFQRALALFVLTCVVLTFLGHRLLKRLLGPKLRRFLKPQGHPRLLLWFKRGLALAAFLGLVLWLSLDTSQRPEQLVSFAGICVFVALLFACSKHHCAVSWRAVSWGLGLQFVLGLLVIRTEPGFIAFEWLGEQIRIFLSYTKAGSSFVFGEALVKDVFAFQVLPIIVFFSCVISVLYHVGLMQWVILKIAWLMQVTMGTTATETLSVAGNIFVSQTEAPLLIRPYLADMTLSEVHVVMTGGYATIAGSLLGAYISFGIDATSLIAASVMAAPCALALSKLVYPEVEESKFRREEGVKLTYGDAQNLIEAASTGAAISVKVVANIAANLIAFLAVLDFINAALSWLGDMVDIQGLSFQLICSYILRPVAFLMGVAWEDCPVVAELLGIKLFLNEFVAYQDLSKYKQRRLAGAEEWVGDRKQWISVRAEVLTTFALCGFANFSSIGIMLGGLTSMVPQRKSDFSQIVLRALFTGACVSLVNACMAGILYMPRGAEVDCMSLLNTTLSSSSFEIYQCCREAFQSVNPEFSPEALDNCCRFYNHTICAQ
Description: To detect nucleoside transport by hCNTs, we turned to two-electrode voltage-clamp electrophysiological recording. Because hCNTs are Na^+-nucleoside symporters, one can measure the current generated by the Na^+ transport that is coupled with nucleoside transport. We injected Xenopus oocytes with mRNA coding for each of the hCNTs and measured inward Na^+ currents elicited by the addition of different nucleosides to the extracellular side.
as §1
as §2, with “ms. The signals were filtered at 0.5 Hz by use of pCLAMP 10.4 software for data presentation. […] Cells were discarded if resting membrane potentials were unstable or more positive than −30 mV. Oocyte membrane potentials were clamped at −90 mV for holding potentials to measure transporter-generated currents. All data are shown as means ± SEM.” for “ms.”

Sequence of hCNT1 (353V/424L) (O00337 whole entry L353V/V424L, the tested form may be a part): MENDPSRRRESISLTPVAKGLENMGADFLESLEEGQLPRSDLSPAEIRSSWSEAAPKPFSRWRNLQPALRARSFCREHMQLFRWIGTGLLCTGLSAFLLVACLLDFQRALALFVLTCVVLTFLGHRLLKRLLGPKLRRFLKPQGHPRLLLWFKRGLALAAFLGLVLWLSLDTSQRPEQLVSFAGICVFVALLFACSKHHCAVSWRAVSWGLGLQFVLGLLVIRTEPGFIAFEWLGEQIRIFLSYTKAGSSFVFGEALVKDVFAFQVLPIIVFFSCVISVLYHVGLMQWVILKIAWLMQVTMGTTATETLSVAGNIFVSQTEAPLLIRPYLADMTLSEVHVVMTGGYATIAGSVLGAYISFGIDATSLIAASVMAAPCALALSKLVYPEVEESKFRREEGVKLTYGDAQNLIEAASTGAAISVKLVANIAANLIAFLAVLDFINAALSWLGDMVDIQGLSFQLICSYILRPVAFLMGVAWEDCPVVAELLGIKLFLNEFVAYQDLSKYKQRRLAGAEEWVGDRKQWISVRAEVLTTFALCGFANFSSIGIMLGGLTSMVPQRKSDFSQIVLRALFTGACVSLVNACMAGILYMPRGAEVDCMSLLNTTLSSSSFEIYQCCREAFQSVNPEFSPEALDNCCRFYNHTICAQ

## Cc1cc2cn([C@@H]3O[C@H](CO)[C@@H](O)C3(F)F)c(=O)nc2[nH]1 [pyrrolo-gemcitabine]
hCNT1 (353V/424L); 400 μM nucleoside, hCNT1 (353V/424L)-expressing Xenopus oocytes
  Total charge transported, Mean: 0.255 μC
hCNT1 (353V/424L); ratio of total charge, 400 μM each, hCNT1 (353V/424L)
  Qpyr-gem/Qgem, Mean: 0.385
hCNT1; 200 μM nucleoside, hCNT1-expressing Xenopus oocytes, mean of Exp. 1-11
  Total charge transported, Mean: 0.823 μC
hCNT1; fold, hCNT1 oocytes, 200 μM
  total charge uptake higher than gemcitabine: sevenfold
hCNT1; ratio of total charge, 200 μM each, hCNT1, mean of Exp. 1-11
  Qpyr-gem/Qgem, Mean: 6.829
